Test system: tobacco budworm (Heliothis virescens [Fabricius])
Experiment: surface-treated diet test against the tobacco budworm
Format: in vivo
Conditions: tobacco budworm second instar larvae, surface-treated diet, 0.25 millimoles of candidate insecticide on the surface of the diet, five-day exposure; for Percent Mortality: compared to total number of insects infested; for Percent Growth Inhibition: inhibition of insect weight relative to untreated controls
Experimental: Candidate insecticides were evaluated for activity against the tobacco budworm (Heliothis virescens [Fabricius]) in a surface-treated diet test.
In this test one mL of molten (65–70° C.) wheat germ-based artificial diet was pipetted into each well of a four by six (24 well) multi-well plate (ID# 430345-15.5 mm dia.×17.6 mm deep; Corning Costar Corp., One Alewife Center, Cambridge, Mass. 02140). The diet was allowed to cool to ambient temperature before treatment with candidate insecticide.
For a determination of insecticidal activity, solutions of the candidate insecticides were prepared for testing using a Packard 204DT Multiprobe® Robotic System (Packard Instrument Company, 800 Research Parkway, Meriden, Conn. 06450), in which the robot first diluted a standard 50 millimolar DMSO solution of candidate insecticide with a 1:1 water/acetone solution (V/V) in a ratio of 1:7 stock solution to water/acetone. The robot subsequently pipetted 40 microliters of the so-prepared solution onto the surface of the diet in each of three wells in the 24 multi-well plate. The process was repeated with solutions of seven other candidate insecticides. Once treated, the contents of the multi-well plate were allowed to dry, leaving 0.25 millimoles of candidate insecticide on the surface of the diet, or a concentration of 0.25 millimolar. Appropriate untreated controls containing only DMSO on the diet surface were also included in this test. […]
In each well of the test plate was placed one second instar tobacco budworm larvea, each weighing approximately five milligrams. After the larvae were placed in each well, the plate was sealed with clear polyfilm adhesive tape. The tape over each well was perforated to ensure an adequate air supply. The plates were then held in a growth chamber at 25° C. and 60% relative humidity for five days (light 14 hours/day).
After the five-day exposure period insecticidal activity for each rate of application of candidate insecticide was assessed as percent inhibition of insect weight relative to the weight of insects from untreated controls, and percent mortality when compared to the total number of insects infested.
The test compounds of formula I are identified by numbers that correspond to those in Table 1.
These tests were conducted with 0.25 millimoles of candidate insecticide on the surface of the diet.

SMILES | Percent Mortality | Percent Growth Inhibition
O=C(Nc1c(Cl)cccc1Cl)OC(c1ccc(C(F)(F)F)cc1)C1CCN(Cc2ccc(Oc3ccccn3)cc2)CC1 (centres unmarked) [Compound 233] | 33% | 100%
O=C(Nc1cc(Cl)c(Cl)cc1Cl)OC(c1ccc(C(F)(F)F)cc1)C1CCN(Cc2ccc(Oc3ccccn3)cc2)CC1 (centres unmarked) [Compound 234] | 100% | 100%
O=C(Nc1cccc(F)c1)OC(c1ccc(OC(F)(F)F)cc1)C1CCN(Cc2ccc(Oc3ccccn3)cc2)CC1 (centres unmarked) [Compound 235] | 100% | 100%
O=C(Nc1ccc(F)cc1)OC(c1ccc(OC(F)(F)F)cc1)C1CCN(Cc2ccc(Oc3ccccn3)cc2)CC1 (centres unmarked) [Compound 236] | 100% | 100%
O=C(Nc1ccc(F)c(F)c1)OC(c1ccc(C(F)(F)F)cc1)C1CCN(Cc2ccc(Oc3ccccn3)cc2)CC1 (centres unmarked) [Compound 237] | 100% | 100%
O=C(Nc1ccc(F)c(F)c1)OC(c1ccc(OC(F)(F)F)cc1)C1CCN(Cc2ccc(Oc3ccccn3)cc2)CC1 (centres unmarked) [Compound 238] | 100% | 100%
O=C(Nc1cc(F)ccc1F)OC(c1ccc(C(F)(F)F)cc1)C1CCN(Cc2ccc(Oc3ccccn3)cc2)CC1 (centres unmarked) [Compound 239] | 100% | 100%
O=C(Nc1cc(F)cc(F)c1)OC(c1ccc(C(F)(F)F)cc1)C1CCN(Cc2ccc(Oc3ccccn3)cc2)CC1 (centres unmarked) [Compound 240] | 100% | 100%
O=C(Nc1c(F)cccc1F)OC(c1ccc(C(F)(F)F)cc1)C1CCN(Cc2ccc(Oc3ccccn3)cc2)CC1 (centres unmarked) [Compound 241] | 100% | 100%
O=C(Nc1ccc(F)c(F)c1F)OC(c1ccc(C(F)(F)F)cc1)C1CCN(Cc2ccc(Oc3ccccn3)cc2)CC1 (centres unmarked) [Compound 242] | 100% | 100%
O=C(Nc1c(F)c(F)c(F)c(F)c1F)OC(c1ccc(C(F)(F)F)cc1)C1CCN(Cc2ccc(Oc3ccccn3)cc2)CC1 (centres unmarked) [Compound 243] | 100% | 100%
O=C(Nc1cccc(C(F)(F)F)c1)OC(c1ccc(C(F)(F)F)cc1)C1CCN(Cc2ccc(Oc3ccccn3)cc2)CC1 (centres unmarked) [Compound 244] | 100% | 100%
O=C(Nc1ccc(C(F)(F)F)cc1)OC(c1ccc(C(F)(F)F)cc1)C1CCN(Cc2ccc(Oc3ccccn3)cc2)CC1 (centres unmarked) [Compound 245] | 100% | 100%
O=C(Nc1ccc(C(F)(F)F)cc1)OC(c1ccc(OC(F)(F)F)cc1)C1CCN(Cc2ccc(Oc3ccccn3)cc2)CC1 (centres unmarked) [Compound 246] | 100% | 100%
O=C(Nc1ccc(Cl)c(C(F)(F)F)c1)OC(c1ccc(C(F)(F)F)cc1)C1CCN(Cc2ccc(Oc3ccccn3)cc2)CC1 (centres unmarked) [Compound 247] | 100% | 100%
O=C(Nc1cc(C(F)(F)F)cc(C(F)(F)F)c1)OC(c1ccc(C(F)(F)F)cc1)C1CCN(Cc2ccc(Oc3ccccn3)cc2)CC1 (centres unmarked) [Compound 248] | 100% | 100%
O=C(Nc1ccc(OC(F)(F)F)cc1)OC(c1ccc(C(F)(F)F)cc1)C1CCN(Cc2ccc(Oc3ccccn3)cc2)CC1 (centres unmarked) [Compound 249] | 100% | 100%
O=C(Nc1ccc(-c2ccccc2)cc1)OC(c1ccc(C(F)(F)F)cc1)C1CCN(Cc2ccc(Oc3ccccn3)cc2)CC1 (centres unmarked) [Compound 250] | 100% | 100%
CCn1nnc(-c2ccc(CN3CCC(C(OC(=O)Nc4ccccc4)c4ccc(OC(F)(F)F)cc4)CC3)cc2)n1 (centres unmarked) [Compound 261] | 100% | 100%
Cn1nnc(-c2ccc(CN3CCC(C(OC(=O)Nc4ccccc4Cl)c4ccc(OC(F)(F)F)cc4)CC3)cc2)n1 (centres unmarked) [Compound 262] | 100% | 100%
Cn1nnc(-c2ccc(CN3CCC(C(OC(=O)Nc4cccc(Cl)c4)c4ccc(OC(F)(F)F)cc4)CC3)cc2)n1 (centres unmarked) [Compound 263] | 100% | 100%
Cn1nnc(-c2ccc(CN3CCC(C(OC(=O)Nc4ccc(Cl)cc4)c4ccc(Cl)cc4)CC3)cc2)n1 (centres unmarked) [Compound 264] | 100% | 100%

SMILES | Percent Mortality | Percent Growth Inhibition
CCn1nnc(-c2ccc(CN3CCC(C(OC(=O)Nc4ccc(Cl)cc4)c4ccc(C(F)(F)F)cc4)CC3)cc2)n1 (centres unmarked) [Compound 265] | 100% | 100%
Cn1nnc(-c2ccc(CN3CCC(C(OC(=O)Nc4ccc(Cl)cc4)c4ccc(OC(F)(F)F)cc4)CC3)cc2)n1 (centres unmarked) [Compound 266] | 100% | 100%
CCn1nnc(-c2ccc(CN3CCC(C(OC(=O)Nc4ccc(Cl)cc4)c4ccc(OC(F)(F)F)cc4)CC3)cc2)n1 (centres unmarked) [Compound 267] | 100% | 100%
CCn1nnc(-c2ccc(CN3CCC(C(OC(=O)Nc4cccc(Br)c4)c4ccc(C(F)(F)F)cc4)CC3)cc2)n1 (centres unmarked) [Compound 268] | 100% | 100%
CCn1nnc(-c2ccc(CN3CCC(C(OC(=O)Nc4ccc(Br)cc4)c4ccc(C(F)(F)F)cc4)CC3)cc2)n1 (centres unmarked) [Compound 269] | 100% | 100%
CCn1nnc(-c2ccc(CN3CCC(C(OC(=O)Nc4ccc(Br)cc4)c4ccc(OC(F)(F)F)cc4)CC3)cc2)n1 (centres unmarked) [Compound 270] | 100% | 100%
CCn1nnc(-c2ccc(CN3CCC(C(OC(=O)Nc4ccc(I)cc4)c4ccc(OC(F)(F)F)cc4)CC3)cc2)n1 (centres unmarked) [Compound 271] | 100% | 100%
Cn1nnc(-c2ccc(CN3CCC(C(OC(=O)Nc4ccccc4F)c4ccc(OC(F)(F)F)cc4)CC3)cc2)n1 (centres unmarked) [Compound 272] | 99% | 100%
Cn1nnc(-c2ccc(CN3CCC(C(OC(=O)Nc4cccc(F)c4)c4ccc(OC(F)(F)F)cc4)CC3)cc2)n1 (centres unmarked) [Compound 273] | 100% | 100%
Cn1nnc(-c2ccc(CN3CCC(C(OC(=O)Nc4ccc(F)cc4)c4ccc(Cl)cc4)CC3)cc2)n1 (centres unmarked) [Compound 274] | 100% | 100%
Cn1nnc(-c2ccc(CN3CCC(C(OC(=O)Nc4ccc(F)cc4)c4ccc(OC(F)(F)F)cc4)CC3)cc2)n1 (centres unmarked) [Compound 275] | 100% | 100%
CCn1nnc(-c2ccc(CN3CCC(C(OC(=O)Nc4ccc(F)cc4)c4ccc(OC(F)(F)F)cc4)CC3)cc2)n1 (centres unmarked) [Compound 277] | 100% | 100%
CCn1nnc(-c2ccc(CN3CCC(C(OC(=O)Nc4ccc(Cl)cc4Cl)c4ccc(C(F)(F)F)cc4)CC3)cc2)n1 (centres unmarked) [Compound 280] | 100% | 100%
CCn1nnc(-c2ccc(CN3CCC(C(OC(=O)Nc4cc(Cl)ccc4Cl)c4ccc(C(F)(F)F)cc4)CC3)cc2)n1 (centres unmarked) [Compound 281] | 100% | 100%
CCn1nnc(-c2ccc(CN3CCC(C(OC(=O)Nc4c(Cl)cccc4Cl)c4ccc(C(F)(F)F)cc4)CC3)cc2)n1 (centres unmarked) [Compound 282] | 0% | 95%
CCn1nnc(-c2ccc(CN3CCC(C(OC(=O)Nc4ccc(Cl)c(Cl)c4)c4ccc(C(F)(F)F)cc4)CC3)cc2)n1 (centres unmarked) [Compound 283] | 100% | 100%
CCn1nnc(-c2ccc(CN3CCC(C(OC(=O)Nc4cc(Cl)cc(Cl)c4)c4ccc(C(F)(F)F)cc4)CC3)cc2)n1 (centres unmarked) [Compound 284] | 100% | 100%
CCn1nnc(-c2ccc(CN3CCC(C(OC(=O)Nc4ccc(C)cc4)c4ccc(OC(F)(F)F)cc4)CC3)cc2)n1 (centres unmarked) [Compound 285] | 100% | 100%
CCn1nnc(-c2ccc(CN3CCC(C(OC(=O)Nc4ccc(C(C)C)cc4)c4ccc(OC(F)(F)F)cc4)CC3)cc2)n1 (centres unmarked) [Compound 286] | 50% | 94%
CCn1nnc(-c2ccc(CN3CCC(C(OC(=O)Nc4cccc(C(F)(F)F)c4)c4ccc(C(F)(F)F)cc4)CC3)cc2)n1 (centres unmarked) [Compound 288] | 100% | 100%
CCn1nnc(-c2ccc(CN3CCC(C(OC(=O)Nc4ccc(C(F)(F)F)cc4)c4ccc(C(F)(F)F)cc4)CC3)cc2)n1 (centres unmarked) [Compound 289] | 100% | 100%
